Literature values as cited in US20160331866A1, “TISSUE REGENERATION MEMBRANE FOR REPAIR AND REGENERATION OF PERIPHERAL NERVE” (NATIONAL CHENG KUNG UNIVERSITY, priority 2015, published 2016).

conditions: conventionally oral dose form

Q: With COc1ccc2c(c1)c(CC(=O)O)c(C)n2C(=O)c1ccc(Cl)cc1 [Indomethacin] as the compound, how does the “concentration of the active ingredient in the blood” value (from here on “concentration”) read?
A: 160 µM

Q: For CC(C)(O)c1ccccc1CC[C@@H](SCC1(CC(=O)O)CC1)c1cccc(/C=C/c2ccc3ccc(Cl)cc3n2)c1 [Montelukast], which “concentration” value is on record?
A: 20 ng/mL

Q: Which “concentration” value does the source give for CC(c1cc2ccccc2s1)N(O)C(N)=O (stereo not shown) [Zileuton] here?
A: 8.46 to 25.38 µM

Q: For CC(=O)Oc1ccccc1C(=O)O [aspirin, acetylsalicylic acid], which “concentration” value is on record?
A: 832 to 1660 µM
